These are literature values, as cited in patent publication US20160287599A1, “SUBSTITUTED 1,2,4-TRIAZINE-3,5-DIONES AND THE USE THEREOF AS CHYMASE INHIBITORS” (BAYER PHARMA AKTIENGESELLSCHAFT, priority 2013, published 2016).

The data set concerns chymase. Conditions: hamsters, myocardial infarction model.

Regarding `CCOc1ccccc1CC1C(=O)N(C(=O)NC(c2ccc(C)cc2)c2ccc(C)cc2)C1Oc1ccc(C(=O)O)cc1` (stereo not drawn) [BCEAB], the chymase activity result is “reduced”, the haemodynamics result is given as “improved” and the mortality result is “reduced”.
